Test results from PubChem BioAssay AID1963866 (Molecular Pharmacology Branch, DTP, NCI, 2024).

Test system: PDC KRAS tumor spheroids with HUVEC/MSC, viability
Test: Anticancer human tumor 349418-098-R-PDC patient-derived lung adenocarcinoma cell line growth inhibition [KRAS2]
Conditions: for IC50: curve of first compound; for viability, T/C: stronger effect = lower value
Method in brief: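 KRAS-mutant tumor cells were grown as spheroids with HUVEC endothelial cells and human MSCs as stroma. Targeted agents were tested alone and with KRAS pathway inhibitors. Doses started at or near clinical Cmax, or 10 microM, descending half-log.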

[1] = second compound 0.0316 µM, first compound 0.000316 µM
[2] = second compound 0.0316 µM, first compound 0.001 µM
[3] = second compound 0.0316 µM, first compound 0.00316 µM
[4] = second compound 0.0316 µM, first compound 0.01 µM
[5] = second compound 0.0316 µM, first compound 0.0316 µM
[6] = second compound 0.1 µM, first compound 0.000316 µM
[7] = second compound 0.1 µM, first compound 0.001 µM
[8] = second compound 0.1 µM, first compound 0.00316 µM
[9] = second compound 0.1 µM, first compound 0.01 µM
[10] = second compound 0.1 µM, first compound 0.0316 µM
[11] = second compound 0.316 µM, first compound 0.000316 µM
[12] = second compound 0.316 µM, first compound 0.001 µM
[13] = second compound 0.316 µM, first compound 0.00316 µM
[14] = second compound 0.316 µM, first compound 0.01 µM
[15] = second compound 0.316 µM, first compound 0.0316 µM
[16] = second compound 1 µM, first compound 0.000316 µM
[17] = second compound 1 µM, first compound 0.001 µM
[18] = second compound 1 µM, first compound 0.00316 µM
[19] = second compound 1 µM, first compound 0.01 µM
[20] = second compound 1 µM, first compound 0.0316 µM
[21] = second compound 3.16 µM, first compound 0.000316 µM
[22] = second compound 3.16 µM, first compound 0.001 µM
[23] = second compound 3.16 µM, first compound 0.00316 µM
[24] = second compound 3.16 µM, first compound 0.01 µM
[25] = second compound 3.16 µM, first compound 0.0316 µM
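Further: spheroids exposed to compounds for seven days before readout.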

Compound | IC50 (second compound 0.0316 µM) [nM] | IC50 (second compound 0.1 µM) [nM] | IC50 (second compound 0.316 µM) [nM] | IC50 (second compound 1 µM) [nM] | IC50 (second compound 3.16 µM) [nM] | viability, T/C [1] [%] | viability, T/C [2] [%] | viability, T/C [3] [%] | viability, T/C [4] [%] | viability, T/C [5] [%] | viability, T/C [6] [%] | viability, T/C [7] [%] | viability, T/C [8] [%] | viability, T/C [9] [%] | viability, T/C [10] [%] | viability, T/C [11] [%] | viability, T/C [12] [%] | viability, T/C [13] [%] | viability, T/C [14] [%] | viability, T/C [15] [%] | further results
CC(=O)Nc1cccc(-n2c(=O)n(C3CC3)c(=O)c3c(Nc4ccc(I)cc4F)n(C)c(=O)c(C)c32)c1 + C=CC(=O)N1CCN(c2nc(OCC3CCCN3C)nc3c2CCN(c2cccc4cccc(C)c24)C3)CC1CC#N | < 0.1 | < 0.1 | < 0.1 | < 0.1 | < 0.1 | 20.2 | 14.8 | 12.2 | 8.59 | 6.57 | 20.9 | 16.1 | 10.9 | 9.4 | 6.86 | 21.8 | 16.8 | 12.6 | 8.68 | 6.94 | viability, T/C (second compound 0.0316 µM, first compound 0.0001 µM): 41.1%; viability, T/C (second compound 0.1 µM, first compound 0.0001 µM): 34.7%; viability, T/C (second compound 0.316 µM, first compound 0.0001 µM): 35.8%; viability, T/C (second compound 1 µM, first compound 0.0001 µM): 30.4%; viability, T/C [16]: 23.3%; viability, T/C [17]: 13.3%; viability, T/C [18]: 9.39%; viability, T/C [19]: 7.58%; viability, T/C [20]: 6.58%; viability, T/C (second compound 3.16 µM, first compound 0.0001 µM): 0.51%; viability, T/C [21]: 0.21%; viability, T/C [22]: 0.19%; viability, T/C [23]: 0.46%; viability, T/C [24]: 0.21%; viability, T/C [25]: 0.34%
CC(C)n1nc(-c2ccc3oc(N)nc3c2)c2c(N)ncnc21 + C=CC(=O)N1CCN(c2nc(OCC3CCCN3C)nc3c2CCN(c2cccc4cccc(C)c24)C3)CC1CC#N | 1.04 | 0.76 | 0.891 | 0.673 | < 0.316 | 91.5 | 51.2 | 14.9 | 9.06 | 8.26 | 95.8 | 35.6 | 13.9 | 8.16 | 7.73 | 92.3 | 45.2 | 18 | 9.14 | 7.31 | viability, T/C (second compound 0.0316 µM, first compound 0.1 µM): 8.57%; viability, T/C (second compound 0.1 µM, first compound 0.1 µM): 7.41%; viability, T/C (second compound 0.316 µM, first compound 0.1 µM): 7.9%; viability, T/C [16]: 71.8%; viability, T/C [17]: 38.3%; viability, T/C [18]: 17.3%; viability, T/C [19]: 7.45%; viability, T/C [20]: 6.31%; viability, T/C (second compound 1 µM, first compound 0.1 µM): 6.74%; viability, T/C [21]: 1%; viability, T/C [22]: 0.25%; viability, T/C [23]: 1.1%; viability, T/C [24]: 0.13%; viability, T/C [25]: 0.22%; viability, T/C (second compound 3.16 µM, first compound 0.1 µM): 0.17%
